Key:
Assay type in all cases: cell-based
[1] = system: fungal mix: Aspergillus brasiliensis DSM 1988, Rhodotorula mucilaginosa DSM 13621, Yarrowia lipolytica DSM 8218; assay: Preservative activity in a manual dishwashing composition (MDW, pH 7.1) with 1.0% 2-phenoxyethanol against fungal mix (Example 1.2); settings: MDW + 1.0% PE, no amide (Comparative)
Procedure: (§1) A manual dish wash detergent (MDW) of pH 7.1 containing the following components was used:
(§2) The samples were contaminated with a fungal mix consisting of: • Aspergillus brasiliensis DSM 1988 • Rhodotorula mucilaginosa DSM 13621 • Yarrowia lipolytica DSM 8218
(§3) The samples were inoculated with the fungal mix at day 0 and 7 to obtain 1-3×10E+05 CFU/ml inoculation in the test sample consisting of the above-defined dish wash detergent MDW and stored at 25° C. for 21 days. CFU was determined before re-inoculation at day 7, and on days 14 and 21.
Any CFU value at d7, d14 or d21 obtained with a MDW sample of the invention containing 2-phenoxyethanol and amide (MDW+1.0% PE+x % of Amide) lower than the respective value of the comparative example (MDW+1.0% by weight of 2-phenoxyethanol) indicates a better performance of the inventive combination of 2-phenoxyethanol with the amide.

[2] = system: fungal mix (including yeasts and molds): Aspergillus brasiliensis DSM 1988, Rhodotorula mucilaginosa DSM 13621, Yarrowia lipolytica DSM 8218; assay: Preservative activity of a basic composition (10% PG in water, pH 7) with 2-phenoxyethanol against fungal contamination (Example 1.1); settings: 25° C.; for d21 [CFU/ml]: day 21
Procedure: An aqueous composition of pH 7 comprising 10% by weight of propyleneglycol (PG) as organic solvent, 0.36% by weight of 2-phenoxyethanol (PE) as antimicrobial and 0.04% by weight of the amide listed in the below table was tested for its preserving activity against fungal contamination (the percentages are weight percent and relate to the total weight of the composition). For this purpose, the samples were contaminated with a fungal mix (including yeasts and molds) consisting of: • Aspergillus brasiliensis DS M 1988 • Rhodotorula mucilaginosa DSM 13621 • Yarrowia lipolytica DS M 8218
To control the efficacy, following control compositions were tested: • “Reference”, consisting of only 10% by weight of propylene glycol in water • “Comparative 1” containing 10% by weight of propylene glycol and amide in the given concentration, but no 2-phenoxyethanol • […] in the given concentration, but no amide.
The samples were inoculated with the fungal mix at day 0, 7 and 14 to obtain a cell density in the range of 1-3×10E+05 CFU/ml (CFU=colony forming units) in the test samples (compositions listed in the below table) and stored at 25° C. for 21 days.
CFU was determined before re-inoculation at days 7 and 14, and on day 21.

[3] = system: fungal mix: Aspergillus brasiliensis DSM 1988, Rhodotorula mucilaginosa DSM 13621, Yarrowia lipolytica DSM 8218; assay: Preservative activity in a hard surface cleaner composition (HSC, pH 7.0) with 2-phenoxyethanol against fungal mix (Example 1.5); settings: HSC + 1.35% PE, no amide (Comparative 2)
Procedure: A manual hard surface cleaner (HSC) of pH 7.0 containing the following components was used:
as §2
The samples were inoculated with the fungal mix at day 0 and 7 to obtain 1-3×10E+05 CFU/ml inoculation in the test sample consisting of the above-defined hard surface cleaner HSC and stored at 25° C. for 21 days. CFU was determined before re-inoculation at day 7, and on days 14 and 21.

[4] = system: bacterial mix: Escherichia coli DSM 1576, Alcaligenes faecalis DSM 13644, Pseudomonas aeruginosa ATCC 15442, Staphylococcus aureus ATCC 6538, Burkholderia …; assay: Preservative activity in a manual dishwashing composition (MDW, pH 7.1) with 1.0% 2-phenoxyethanol against bacterial mix (Example 2.5); settings: MDW + 1.0% PE, no amide (Comparative)
Procedure: A manual dish wash detergent (MOW) of pH 7.1 containing the following components was used:
The samples were contaminated with a bacterial mix consisting of: • Escherichia coli DSM 1576 • Alcaligenes faecalis DSM 13644 • Pseudomonas aeruginosa ATCC 15442 • Staphylococcus aureus ATCC 6538 • Burkholderia cepacia DSM 7288 • Pseudomonas putida DSM 12735
The samples were inoculated with the bacterial mix at day 0 and 7 to obtain 10E+06 to 10E+07 CFU/ml inoculation in the test sample and stored at 25° C. for 21 days. CFU was determined before re-inoculation at day 7 and on day 21.
Any CFU value at day 7 (d7) or day 21 (d21) obtained with a sample according to the invention containing 2-phenoxyethanol and amide (MDW+1.0% PE+1.0% Amide) lower than the respective value of the comparative example (MDW+1% by weight of 2-phenoxyethanol) indicates a better performance.

[5] = system: fungus Aspergillus brasiliensis DSM 1988; assay: Preservative activity in an enzyme (mannanase) solution of pH 6 with 2-phenoxyethanol (Example 1.4); settings: for d0 [CFU/ml]: day 0 (inoculation); for d2 [CFU/ml]: day 2; for d7 [CFU/ml]: day 7; for d14 [CFU/ml]: day 14; for d15 [CFU/ml]: day 15 (after re-inoculation); for d22 [CFU/ml]: day 22; for d29 [CFU/ml]: day 29
Procedure: A enzyme solution of pH 6 containing the hydrolase mannanase of the following composition was used:
The samples were contaminated with the fungus Aspergillus brasiliensis DSM 1988.
The samples were inoculated with the fungus at day 0 and 15 to obtain 1-3×10E+05 CFU/ml inoculation in the test sample consisting of the above-defined enzyme solution and stored at 25° C. for 29 days. CFU was determined at days 0, 2, 7, 14, 15 (after re-inoculation), 22 and 29 (abbreviated d0, d2, d7, d14, d15, d22, d29).
Any CFU value at d2, d7, d14, d22 or d29 obtained with an enzyme solution sample of the invention containing 2-phenoxyethanol and amide (enzyme solution+0.7% PE+0.07% of amide) lower than the respective value of the comparative example (enzyme solution+0.7% by weight of 2-phenoxyethanol) indicates a better performance of the inventive combination of 2-phenoxyethanol with the amide.
The amide used was N,N-dimethyl-n-decanoyl amide (=n-decanoyl-N,N-dimethylamide).

[6] = system: fungal mix: Aspergillus brasiliensis DSM 1988, Rhodotorula mucilaginosa DSM 13621, Yarrowia lipolytica DSM 8218; assay: Preservative activity in a manual dishwashing composition (MDW, pH 7.1) with 2.0% 2-phenoxyethanol against fungal mix (Example 1.3); settings: for d7 [CFU/ml]: day 7; for d14 [CFU/ml]: day 14; for d21 [CFU/ml]: day 21
Procedure: as §1, §2, §3
Any CFU value at d7, d14 or d21 obtained with a MDW sample of the invention containing 2-phenoxyethanol and amide (MDW+2.0% PE+1% of Amide) lower than the respective value of the “comparative 2” example (MDW+2.0% by weight of 2-phenoxyethanol) indicates a better performance of the inventive combination of 2-phenoxyethanol with the amide.

[7] = Enzyme solution + 0.7% PE, no amide (Comparative)
[8] = MDW + 2.0% PE, no amide (Comparative 2)
[9] = Enzyme solution + 0.7% PE + 0.07% amide
[10] = MDW + 1.0% amide, no PE (Comparative 1)

**Q.** Which results are given for `OCCOc1ccccc1` [PE, 2-phenoxyethanol, reference compound]?
**A.** d7 [CFU/ml] ([1]; day 7): 38,000 CFU/ml; d14 [CFU/ml] ([1]; day 14): 27,000 CFU/ml; d21 [CFU/ml] ([1]; day 21): 3,700 CFU/ml; d7 [CFU/ml] ([2]; 10% PG + 0.4% PE, no amide (Comparative 2), fungal mix inoculated at day 0, 7 and 14, day 7): 10,000 CFU/ml; d14 [CFU/ml] ([2]; 10% PG + 0.4% PE, no amide (Comparative 2), fungal mix inoculated at day 0, 7 and 14, day 14): 16,000 CFU/ml; d21 [CFU/ml] ([2]; 10% PG + 0.4% PE, no amide (Comparative 2), fungal mix inoculated at day 0, 7 and 14): 38,500 CFU/ml; d7 [CFU/ml] ([3]; day 7): 37,000 CFU/ml; d14 [CFU/ml] ([3]; day 14): 36,000 CFU/ml; d21 [CFU/ml] ([3]; day 21): 3200 CFU/ml; d7 [CFU/ml] ([4]; day 7): 820 CFU/ml; d21 [CFU/ml] ([4]; day 21): 135 CFU/ml; d0 [CFU/ml] [5, 7]: 110,000 CFU/ml; d2 [CFU/ml] [5, 7]: 92,000 CFU/ml; d7 [CFU/ml] [5, 7]: 29,000 CFU/ml; d14 [CFU/ml] [5, 7]: 21,000 CFU/ml; d15 [CFU/ml] [5, 7]: 300,000 CFU/ml; d22 [CFU/ml] [5, 7]: 67,000 CFU/ml; d29 [CFU/ml] [5, 7]: 100,000 CFU/ml; d7 [CFU/ml] [6, 8]: 27,500 CFU/ml; d14 [CFU/ml] [6, 8]: 22,000 CFU/ml; d21 [CFU/ml] [6, 8]: 18,000 CFU/ml

**Q.** With `CCCCCCCCCC(=O)N(C)C` [n-Decanoyl-N,N-dimethylamide] as the compound, how does the “d7 [CFU/ml]” value ([2]; 10% PG + 0.36% PE + 0.04% Amide in water, pH 7, fungal mix inoculated at day 0, 7 and 14 (1-3x10E+05 CFU/ml), day 7 before re-inoculation) read?
**A.** <10 CFU/ml

**Q.** What about the “d14 [CFU/ml]” value ([2]; 10% PG + 0.36% PE + 0.04% Amide in water, pH 7, fungal mix inoculated at day 0, 7 and 14, day 14 before re-inoculation) of the same compound?
**A.** <10 CFU/ml

**Q.** And the “d21 [CFU/ml]” value ([2]; 10% PG + 0.36% PE + 0.04% Amide in water, pH 7, fungal mix inoculated at day 0, 7 and 14)?
**A.** <10 CFU/ml

**Q.** What about the “d0 [CFU/ml]” value ([5]; Enzyme solution + 0.7% PE + 0.07% amide (N,N-dimethyl-n-decanoyl amide)) of the same compound?
**A.** 110,000 CFU/ml

**Q.** And the “d2 [CFU/ml]” value [5, 9]?
**A.** 80,000 CFU/ml

**Q.** What about the “d7 [CFU/ml]” value [5, 9] of the same compound?
**A.** 240 CFU/ml

**Q.** What about the “d14 [CFU/ml]” value [5, 9] of the same compound?
**A.** 30 CFU/ml

**Q.** What about the “d15 [CFU/ml]” value [5, 9] of the same compound?
**A.** 300,000 CFU/ml

**Q.** What about the “d22 [CFU/ml]” value [5, 9] of the same compound?
**A.** 14,000 CFU/ml

**Q.** What about the “d29 [CFU/ml]” value [5, 9] of the same compound?
**A.** 70 CFU/ml

**Q.** And the “d7 [CFU/ml]” value [6, 10]?
**A.** 50,500 CFU/ml

**Q.** What about the “d14 [CFU/ml]” value [6, 10] of the same compound?
**A.** 97,500 CFU/ml

**Q.** And the “d21 [CFU/ml]” value [6, 10]?
**A.** 83,000 CFU/ml

**Q.** What about the “d7 [CFU/ml]” value ([6]; MDW + 2.0% PE + 1.0% amide) of the same compound?
**A.** 19,000 CFU/ml

**Q.** And the “d14 [CFU/ml]” value ([6]; MDW + 2.0% PE + 1.0% amide)?
**A.** 10,000 CFU/ml

**Q.** And the “d21 [CFU/ml]” value ([6]; MDW + 2.0% PE + 1.0% amide)?
**A.** 5,000 CFU/ml

Reference: patent US20250040539A1, “COMPOSITION COMPRISING AN ANTIMICROBIAL AGENT AND A CARBOXAMIDE” (BASF SE, priority 2021, published 2025)
